# Experiments:
# Type in all cases: cell-based, human
# minor spliceosome (MiS) = assay: Luciferase minor intron splicing reporter assay
# Method: (§1) CMV-luc2CP/ARE (major intron splicing reporter), CMV-luc2CP (empty vector backbone control) and luc1CFH4 (minor splicing intron reporter) were a kind gift from Dr. Gideon Dreyfuss (University of Pennsylvania). DNA was amplified via chemical transformation of One Shot Mach1 T1 Phage-Resistant Chemically Competent E. coli cells (Invitrogen, C862003) and Sanger sequenced.
# (§2) 24 hours prior analysis cells of each condition were co-transfected with each reporter plasmid and the empty vector backbone plasmid. In short 1.5 ul of P3000 reagent plus 0.5 ug of DNA and 1.5 ul Lipofectamine P300 were each diluted in 25 ul Opti-MEMH medium. Both mixes were pooled and incubated for 20 minutes before the solution was added to the cells. Luciferase expression was measured with the Dual-Glo® Luciferase Assay System (Promega, E2940): media was removed, 100 ul of PLB were added and cells were frozen for two hours at −20 C. After a one hour shaking step 100 ul of LAR substrate was added and Firefly luciferase expression was measured with a Tecan Infinite M200PRO reader. Values were calculated as x-fold of CMV-luc2CP expression and subsequently as the x-fold of the respective reference control.
# [1] = test system: C4-2 cells and enzalutamide-resistant LNCaP (L-rENZ) cells; assay: Growth curves with siRNA +/- enzalutamide; conditions: CRPC C4-2 and L-rENZ cells; compared with EZH2 plus enzalutamide
# Method: For growth experiments cells were treated with siRNA and two hours later with 20 uM enzalutamide. Enzalutamide was refreshed 3 days later.
# Cells were seeded in a 6 well (400 000) and treated according to assay conditions over night. Cells were then seeded in Poly-L-Lysine coated 96-well plates (8000 cells/well, n=3 per condition) and WCM154 cells were seeded in a collagen-coated 96-well plates (5000 cells/well, n=3 per condition). Remaining cells were used for U6atac KD control via qRT-PCR. Cell viability was determined after 24, 48, 72, and 96 h with a Tecan Infinite M200PRO reader using the CellTiter-Glo® Luminescent Cell Viability Assay according to manufacturer's directions (Promega, G9243). Viability values were calculated as x-fold of cells transfected with siRNA for 0 h. Cell confluence (n=4 per condition) was determined using the Incucyte S3 instrument and the IncuCyte S3 2018B software (Essen Bioscience, Germany). Values were calculated as x-fold of timepoint 0 and then as fold-change in confluency as compared to siScrambled treated controls.
# major spliceosome = assay: Luciferase major intron splicing reporter assay; conditions: LNCaP and C4-2 cells, long term ADT/ARSi
# Method: as §1
# as §2, with “To determine the minor/major intron splicing rate cells were seeded in white 96 well plate (Huberlab, 7.655 098) (8000/well) and treated according to assay conditions. 24” for “24”
smiles,measurement,setting,value
COc1ccc(C[C@H]2NC[C@H](O)[C@H]2OC(C)=O)cc1 [anisomycin],effect on minor intron splicing (luc-splicing reporter),"minor spliceosome (MiS); LNCaP, C4-2, H660 cells and MSK8, MSK10, MSK16, PM154, PM1262 organoids, p38MAPK activation","only observed in PCa-NE cells and organoids (H660, PM154 and MSK10)"
CNC(=O)c1ccc(N2C(=S)N(c3ccc(C#N)c(C(F)(F)F)c3)C(=O)C2(C)C)cc1F [enzalutamide],MiS activity (minor splicing luc-reporter),"minor spliceosome (MiS); LNCaP and C4-2 cells, long term ADT/ARSi",significant increase in MiS activity
same,cell growth / proliferation,[1],increased CRPC growth in resistant cells
same,major splicing (luc-reporter),major spliceosome,only limited effects
C[C@]12CCC(=O)C[C@@H]1CC[C@@H]1[C@@H]2CC[C@]2(C)[C@@H](O)CC[C@@H]12 [dihydrotestosterone],MiS activity (luciferase reporter),minor spliceosome (MiS),rescued MiS activity to levels observed in L-AR alone

# From patent US20240325429A1, “MINOR SPLICEOSOME TARGETING COMPOSITIONS AND THEIR USE IN CANCER TREATMENT” (UNIVERSITÄT BERN, priority 2021, published 2024)
